Values quoted from earlier work in patent publication US20190124865A1, “APPARATUS AND METHOD FOR INACTIVATING PLANT PATHOGENS WHILE STIMULATING PLANT GROWTH VIA SELECTIVE APPLICATION OF OXYGEN/OZONE GAS MIXTURES, AND CARBON DIOXIDE, IN A MULTI COMPARTMENT SYSTEM” (priority 2017, published 2019).

Experiments:
[1] = system: plants; details: 30% increase in ambient carbon dioxide, in the order of 100 ppm to 150 ppm
[2] = system: fungal species; details: ozone 5% by volume, given time
[3] = system: staphylococcus aureus; details: ozone 5% per volume admixed with oxygen
[4] = gaseous milieu, room temperature
[5] = system: Aeromonas hydrophilia; details: ozone 5% per volume admixed with oxygen
[6] = system: coliform bacteria; details: ozone 5% per volume admixed with oxygen

For `O=C=O` [carbon dioxide], the “increase in plant growth” value [1] is listed as 30%.

For `O=[O+][O-]` [Ozone, ozone], the “effect on fungal species” value [2] is given as “inexorable distress to any and all fungal species, leading to their demise”, the “inactivation of staphylococcus aureus” value [3] is given as “rapidly inactivates” and the “rate of reversion to pure oxygen” value [4] is given as “about 50 % per hour”. For the same compound, the “inactivation of Aeromonas hydrophilia” value [5] was “rapidly inactivates” and the “inactivation of coliform bacteria” value [6] was “rapidly inactivates”.
